According to patent US8846951B2 (AbbVie Inc., priority 2009, dated 2014):
Like-named read-outs stand apart in the source and are kept apart here.

What was measured:
5HT2B receptors = target: T1, 5HT2B receptors (Homo sapiens, UniProt P41595); test: Human 5-HT2B functional high throughput screening assay in CHO-K1 cells (calcium flux); format: cell-based; settings: for EC50: CHO-K1 cells, calcium flux
T1 construct: expressed in transfected cells; host or cells: CHO-K1 cells
Procedure: (§1) (iii) Human 5-HT2C and 5-HT2B Functional High Throughput Screening Assays in CHO-K1 Cells
(§2) CHO-K1 cells over-expressing 5HT2C or 5HT2B receptors were grown in 1272 cm^2 flasks to 70-80% confluency in UltraCHO media (Lonza, Walkersville, Md.) supplemented with 1% dialyzed fetal bovine serum (FBS), 250 μg/mL zeocin, 100 U/mL penicillin and 100 μg/mL streptomycin, and 400 μg/mL geneticin. The cells were dissociated from the flasks using 0.05% trypsin, resuspended in Recovery™ cell culture freezing medium (Invitrogen, Carlsbad, Calif.) and stored in liquid nitrogen until use. The calcium flux experiments were done using frozen cells. The cells were diluted in media containing 1% dialyzed FBS and 100 U/mL penicillin and 100 μg/mL streptomycin and plated into 384-well poly-D-Lysine coated plates (15,000 cells/well). Then the plates were incubated overnight in a cell incubator at 37° C., 5% CO2. On the next day, the growth media was replaced with media without FBS and further incubated overnight. On day three, the changes in intracellular Ca^2+ were determined using calcium sensitive fluorescent dye, Ca4 (MDS Analytical Technologies, Sunnyvale, Calif.) by loading 15 μL of diluted dye in Hank's Balanced Salt Solution and 20 mM Hepes buffer (pH 7.4) with final concentration of 2.5 mM probenecid into the cells containing media. Then the cells were incubated at room temperature for 60 minutes in dark.
(§3) After incubation, the cell plates were transferred to FLIPR™ (MDS) and their fluorescence measurements were read at an excitation wavelength of 480 nm and an emission wavelength of 530 nm at 25° C. The baseline fluorescence was measured for the first 10 seconds and then 15 μL of 4× concentration of serotonin/test compound was added to the cells. The fluorescence intensity was captured every second for the first 1 minute followed by every 5 seconds for an additional 2 minutes. The increase in fluorescent response by a test compound was normalized to the response of serotonin and used to determine agonist activity. The concentration response of compounds was done from a starting concentration of 10 μM, 1:10 dilution across 6 wells with a final dimethyl sulfoxide concentration of 0.2% and was fitted using a 4-parameter logistic equation. The concentration at which a compound exerts half its maximal effect was named as ‘effective concentration 50’ or ‘EC50’. Emax is the maximum functional response or efficacy expressed as a percentage relative to the effect of serotonin.

5HT2C receptors = target: T2, 5HT2C receptors (Homo sapiens, UniProt P28335); test: Human 5-HT2C functional high throughput screening assay in CHO-K1 cells (calcium flux); format: cell-based; set-up: expressed in transfected cells; host or cells: CHO-K1 cells; settings: for EC50: CHO-K1 cells, calcium flux; for Emax: CHO-K1, 5-HT2C, maximum functional response as percentage relative to the effect of serotonin
T2 sequence (P28335 33-458): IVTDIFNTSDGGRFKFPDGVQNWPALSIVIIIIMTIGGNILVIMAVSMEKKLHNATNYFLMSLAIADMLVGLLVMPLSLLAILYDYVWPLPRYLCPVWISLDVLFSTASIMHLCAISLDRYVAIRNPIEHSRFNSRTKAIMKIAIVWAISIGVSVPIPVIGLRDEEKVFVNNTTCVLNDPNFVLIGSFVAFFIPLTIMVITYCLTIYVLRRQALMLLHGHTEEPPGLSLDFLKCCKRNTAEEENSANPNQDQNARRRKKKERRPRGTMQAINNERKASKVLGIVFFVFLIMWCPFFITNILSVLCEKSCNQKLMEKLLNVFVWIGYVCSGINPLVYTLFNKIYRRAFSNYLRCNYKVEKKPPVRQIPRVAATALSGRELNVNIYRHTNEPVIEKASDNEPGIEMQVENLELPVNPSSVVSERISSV
Procedure: as §1, §2, §3

[1] = 5-HT2B agonist activity, read-out: EC50
[2] = 5-HT2B, maximum functional response as percentage relative to the effect of serotonin
[3] = 5-HT2C agonist activity, read-out: EC50

T1 sequence (P41595 whole entry): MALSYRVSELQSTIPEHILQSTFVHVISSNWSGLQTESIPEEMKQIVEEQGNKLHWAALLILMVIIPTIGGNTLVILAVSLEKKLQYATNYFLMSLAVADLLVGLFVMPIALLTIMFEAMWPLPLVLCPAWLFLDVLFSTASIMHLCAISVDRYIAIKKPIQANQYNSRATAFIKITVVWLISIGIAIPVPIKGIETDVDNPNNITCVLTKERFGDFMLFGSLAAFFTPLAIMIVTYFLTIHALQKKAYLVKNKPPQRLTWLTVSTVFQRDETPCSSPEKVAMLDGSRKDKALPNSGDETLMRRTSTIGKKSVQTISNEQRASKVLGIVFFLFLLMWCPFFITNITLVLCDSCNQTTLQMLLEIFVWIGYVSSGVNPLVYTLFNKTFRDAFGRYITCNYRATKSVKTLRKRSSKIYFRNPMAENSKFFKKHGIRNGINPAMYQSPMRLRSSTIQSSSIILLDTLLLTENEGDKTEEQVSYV

| Structure (SMILES) | EC50 (5HT2B receptors; [1]) | Emax (5HT2B receptors; [2]) | EC50 (5HT2C receptors; [3]) | Emax (5HT2C receptors; read-out: Emax) | Emax (5HT2B receptors; CHO-K1) | EC50 (5HT2B receptors; EC50, 5-HT2B agonist activity) | Emax (5HT2C receptors) | EC50 (5HT2C receptors; EC50, 5-HT2C agonist activity) | Emax (5HT2B receptors; CHO-K1, 5-HT2B, maximum functional response as percentage relative to the effect of serotonin, read-out: Emax) |
| --- | --- | --- | --- | --- | --- | --- | --- | --- | --- |
| COC(=O)c1ccc2c(c1)C(=O)NC[C@@H]1CN(C)C[C@@H]21 (relative stereo) [Example 88, Trans-methyl 2-methyl-6-oxo-1,2,3,3a,4,5,6,10b-octahydrobenzo[e]pyrrolo[3,4-c]azepine-8-carboxylate] | > 10000 nM | inactive | 500 nM | > 120% |  |  |  |  |  |
| CN1C[C@H]2CNC(=O)c3cccc(F)c3[C@@H]2C1 (relative stereo) [Example 89, Trans-10-fluoro-2-methyl-1,2,3,3a,4,5-hexahydrobenzo[e]pyrrolo[3,4-c]azepin-6(10bH)-one] |  |  |  |  | 33% | 560 nM | > 120% | 11.5 nM |  |
| CN1C[C@H]2CNC(=O)c3c(F)cccc3[C@@H]2C1 (relative stereo) [Example 92, Trans-7-fluoro-2-methyl-1,2,3,3a,4,5-hexahydrobenzo[e]pyrrolo[3,4-c]azepin-6(10bH)-one] |  |  |  |  | 34% | 1350 nM | > 120% | 56 nM |  |
| O=C1NC[C@@H]2CN(Cc3ccccc3)C[C@H]2c2c1sc1ccccc21 (relative stereo) [Example 97, Trans-2-benzyl-2,3,3a,4,5,11c-hexahydro[1]benzothieno[2,3-c]pyrrolo[3,4-e]azepin-6(1H)-one] | 4000 nM |  | 1000 nM | 110% |  |  |  |  | 40% |
| COc1cc(OC)c2c(c1)C(=O)NC[C@@H]1CN(Cc3ccccc3)C[C@@H]21 (relative stereo) [Example 98, Trans-2-benzyl-8,10-dimethoxy-1,2,3,3a,4,5-hexahydrobenzo[c]pyrrolo[3,4-e]azepin-6(10bH)-one] | > 10000 nM | inactive | 10 nM | > 120% |  |  |  |  |  |
| O=C1NC[C@@H]2CNC[C@H]2c2c1sc1ccccc21 (relative stereo) [Example 99, Trans-2,3,3a,4,5,11c-hexahydro[1]benzothieno[2,3-e]pyrrolo[3,4-e]azepin-6(1H)-one] |  |  |  |  | 90% | 1000 nM | > 120% | 20 nM |  |
| COc1cc(OC)c2c(c1)C(=O)NC[C@@H]1CNC[C@@H]21 (relative stereo) [Example 100, Trans-8,10-dimethoxy-1,2,3,3a,4,5-hexahydrobenzo[c]pyrrolo[3,4-e]azepin-6(10bH)-one] |  |  |  |  | 70% | 900 nM | > 120% | 3 nM |  |
| O=C1NC[C@@H]2CN(Cc3ccccc3)C[C@H]2c2sccc21 (relative stereo) [Example 101, Trans-8-benzyl-6,6a,7,8,9,9a-hexahydropyrrolo[3,4-e]thieno[3,2-c]azepin-4(5H)-one] | > 10000 nM | inactive | 400 nM | > 120% |  |  |  |  |  |
| O=C1NC[C@@H]2CN(Cc3ccccc3)C[C@H]2c2cccc(OC(F)(F)F)c21 (relative stereo) [Example 102, Trans-2-benzyl-7-(trifluoromethoxy)-1,2,3,3a,4,5-hexahydrobenzo[c]pyrrolo[3,4-e]azepin-6(10bH)-one] | > 10000 nM | inactive | 100 nM | > 120% |  |  |  |  |  |
| O=C1NC[C@@H]2CNC[C@H]2c2cccc(OC(F)(F)F)c21 (relative stereo) [Example 103, Trans-7-(trifluoromethoxy)-1,2,3,3a,4,5-hexahydrobenzo[c]pyrrolo[3,4-e]azepin-6(10bH)-one] |  |  |  |  | 110% | 80 nM | > 120% | 0.7 nM |  |
| O=C1NC[C@@H]2CNC[C@H]2c2sccc21 (relative stereo) [Example 104, Trans-6,6a,7,8,9,9a-hexahydropyrrolo[3,4-e]thieno[3,2-c]azepin-4(5H)-one] | > 10000 nM | inactive | 900 nM |  |  |  | > 120% |  |  |
